Laboratory results as given in patent US10167315B2, “Peptoids and methods for treating Alzheimer's disease” (THE BOARD OF TRUSTEES OF THE UNIVERSITY OF ARKANSAS, priority 2015, dated 2019).
Where a SMILES comes first, the peptide text is derived from it. [ ]: non-standard residue; d: D form. N(1S-Me-propyl)Gly = CC[C@H](C)NCC(=O)O; Nspe = C[C@H](NCC(=O)O)c1ccccc1; Nphe = O=C(O)CNCc1ccccc1; NPrGly = CCCNCC(=O)O; Nlys = NCCCCNCC(=O)O

Experiments:
Aβ40 [1] = biological target: T1, Aβ40 (Homo sapiens, UniProt P05067); assay: Aβ40 aggregation assay monitored via ThT fluorescence; type: biochemical; details: 100 μM peptoid, 20 μM Aβ40 monomer; mean±SEM, n=7
T1 construct: purchased Anaspec, Inc
Protocol: (§1) Aβ40 was dissolved in cold 1,1,1,3,3-hexafluoro-2-propanol (HFIP) to create a 1 mM solution and was incubated on ice for 60 min. After incubation, the solution was aliquoted into individual silicon-coated vials, and HFIP was allowed to evaporate overnight at room temperature, resulting in a thin protein film that was stored with desiccant at −80° C. until use. Prior to experimentation, protein films were rehydrated with 5 mM NaOH on ice for 5 min, and then 40 mM Tris-HCl (pH 8.0) was added for 10 min on ice for a final concentration of 250 μM NaOH.
(§2) Aggregation assays were performed with 20 μM rehydrated Aβ40 in 40 mM Tris-HCl (pH 8.0) and 150 mM NaCl. Peptoids were dissolved in DMSO and added at 100 μM such that the final DMSO concentration was 5% (v/v). Assays were performed at 25° C. with agitation on an orbital shaker at 800 rpm.
To monitor aggregation using ThT, an aliquot of the aggregation reaction was taken at varying time points and combined with 12.5 μM ThT at a 5:1 molar ratio (ThT:Aβ). Samples were mixed for 8 s and then scanned with a Shimazdu RF-150 mini fluorometer (excitation at 440±10 nm and emission at 490±10 nm) using an average scan time of 4 s. ThT fluorescence with background (ThT alone) subtraction was normalized to the fluorescence detected at equilibrium within the control reaction, and results were plotted against time. […] The fold-change in the lag time was calculated as the ratio of the lag time observed in the presence of peptoid to that of the control. The equilibrium plateau was determined for both the control and peptoid reactions, and percent inhibition was calculated as the percentage decrease of the equilibrium plateau observed in the presence of peptoid relative to the control.

Aβ40 [2] = biological target: T1, Aβ40; assay: Aβ40 aggregation assay assessed by dot blot analysis with fibril specific OC antibody; type: biochemical; details: 100 μM peptoid, 20 μM Aβ40 monomer; for lag time extension (dot blot, OC antibody), FIG. 3 legend: mean±SEM, n=3
Protocol: as §1, §2
In parallel with ThT fluorescence, aggregation assays were also assessed by dot blot analysis. […] Membranes were washed three times with TBS-T and incubated with Aβ fibril specific OC antibody (1:5000 dilution) for 1 h at room temperature with gentle agitation. Membranes were again washed three times with TBS-T. Protein detection for bound OC antibody was performed by binding alkaline phosphatase-conjugated anti-rabbit IgG (1:3000 dilution) for 1 h at room temperature with gentle agitation. Dot blots were developed using nitro blue tetrazolium and 5-bromo-4-chloro-3-indolyl phosphate in TBS-T/MgCl2 until […]. The developing reaction was halted using a 10% acetic acid solution. Dot blots were immediately imaged using a Canon CanoScan 9000F (Tokyo, Japan). Images were analyzed with ImageJ software using the gel lane analysis tool. Dot density was normalized to the density detected at equilibrium for the control and plotted against time. The fold-change in lag time and percent inhibition were assessed as described for ThT fluorescence.

Aβ40 [3] = biological target: T1, Aβ40; assay: Transmission electron microscopy of Aβ40 aggregates; details: 100 μM peptoid, 20 μM Aβ40, 255 min; for overall number of Aβ40 aggregates (TEM): versus control
Protocol: Aggregation assays were performed with 20 μM rehydrated Aβ40 in 40 mM Tris-HCl (pH 8.0) and 150 mM NaCl. Peptoids were dissolved in DMSO and added at 100 μM such that the final DMSO concentration was 5% (v/v). Assays were performed at 25° C. with agitation on an orbital shaker at 800 rpm. Monomer aggregation reactions were gridded for transmission electron microscopy (TEM) at 255 min, a time by which the control reaction had reached plateau as observed by ThT fluorescence. A 3 μL sample was placed onto a wax substrate, and a 300 square mesh formvar-carbon supported nickel grid (Electron Microscopy Sciences, Hatfield, Pa.) was inverted onto the sample. After 1 min, the sample was wicked away from the bottom side of the grid using a piece of filter paper. A 3 μL sample of 2% uranyl acetate was then placed onto the wax substrate, and the grid was inverted onto the solution for a period of 45 s. Excess stain was wicked away with a piece of filter paper, and the grids were allowed to dry for a period of 24 h. Imaging was performed using a JEOL-1011 transmission electron microscope (JEOL Ltd., Tokyo, Japan) with an accelerating voltage of 110 kV. Blinded observation of samples with random selection of grid areas was implemented to reduce bias during imaging. Images are the representative of 3 repeated experiments and 3 random sections of the grids.

Aβ40 [4] = biological target: T1, Aβ40; assay: Nile Red spectroscopy, surface hydrophobicity of Aβ40 aggregates; details: 100 μM peptoid, 20 μM Aβ40, equilibrium plateau; n=3-4
Protocol: as §2
To monitor peptoid-induced changes in aggregate surface hydrophobicity, which are indicative of changes in aggregate conformation, an aliquot of the aggregation reaction was taken from the equilibrium plateau and combined with 200 μM Nile Red (Life Technologies, Carlsbad, Calif.) at a 10:1 molar ratio (Nile Red:Aβ). Samples were scanned using a PerkinElmer LS 45 Luminescence Spectrometer (excitation at 550 nm and emission from 580-700 nm), and the integrated area under the curve (IAUC) was calculated from 580-700 nm. The IAUC was blank (Nile Red, peptoid) subtracted and normalized to Nile Red measurements performed for the control reaction.

Aβ40 [5] = biological target: T1, Aβ40; details: cited from earlier work
Aβ40 [6] = biological target: T1, Aβ40; details: different Aβ lot; cited from earlier work

T1 sequence (P05067 672-711 limits assumed): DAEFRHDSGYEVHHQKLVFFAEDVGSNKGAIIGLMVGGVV

## CC[C@H](C)N(CC(=O)N(CC(=O)N(CC(=O)N(CC(=O)N(CC(=O)N(CC(=O)N(CC(N)=O)[C@@H](C)c1ccccc1)[C@@H](C)c1ccccc1)[C@@H](C)CC)[C@@H](C)c1ccccc1)[C@@H](C)c1ccccc1)[C@@H](C)CC)C(=O)CNCCCCN [JPT1] (H-[Nlys][N(1S-Me-propyl)Gly][N(1S-Me-propyl)Gly][Nspe][Nspe][N(1S-Me-propyl)Gly][Nspe][Nspe]-NH2)
Aβ40 [1]
  Inhibition of Aβ40 aggregation (reduction in the ThT fluorescence plateau at equilibrium): 83.1±4.8%
Aβ40 [2]
  decrease in fibrillar aggregates at equilibrium (dot blot, OC antibody): 46.0±11.4%
  fold change in lag time versus the control (dot blot, OC antibody): 2.7±0.8 fold
  lag time extension (dot blot, OC antibody), FIG. 3 legend: 2.67±0.83 times that of the control
Aβ40 [3]
  morphology of Aβ40 aggregates formed in the presence of peptoid (TEM): small aggregates with no extensive branching
  overall number of Aβ40 aggregates (TEM): reduction in the overall number of aggregates
Aβ40 [4]
  surface hydrophobicity of Aβ40 aggregates (Nile Red fluorescence IAUC 580-700 nm normalized to control): no significant change in Nile Red fluorescence
Aβ40 [5]
  Inhibition of Aβ40 aggregation (ThT), previously reported value: 81.2±4.4%
Aβ40 [6]
  decrease in fibrillar aggregates (dot blot), previously published data: 63.7±9.2%
  fold change in lag time compared to the control (dot blot), previously published data: < 0.31 fold

## CC[C@H](C)NCC(=O)N(CC(=O)N(CC(=O)N(CC(=O)N(CC(=O)N(CCCCN)CC(=O)N(CC(=O)N(CC(N)=O)[C@@H](C)c1ccccc1)[C@@H](C)CC)[C@@H](C)CC)[C@@H](C)c1ccccc1)[C@@H](C)c1ccccc1)[C@@H](C)c1ccccc1 [JPT1s] (H-[N(1S-Me-propyl)Gly][Nspe][Nspe][Nspe][N(1S-Me-propyl)Gly][Nlys][N(1S-Me-propyl)Gly][Nspe]-NH2)
Aβ40 [1]
  Inhibition of Aβ40 aggregation (reduction in the ThT fluorescence plateau at equilibrium): 76.9±4.8%
Aβ40 [2]
  decrease in fibrillar aggregates at equilibrium (dot blot, OC antibody): 50.5±9.0%
  fold change in lag time versus the control (dot blot, OC antibody): 2.2±0.4 fold
  lag time extension (dot blot, OC antibody), FIG. 3 legend: 2.22±0.28 times that of the control
Aβ40 [3]
  overall number of Aβ40 aggregates (TEM): reduction in the overall number of aggregates
Aβ40 [4]
  surface hydrophobicity of Aβ40 aggregates (Nile Red fluorescence IAUC 580-700 nm normalized to control): no significant change in Nile Red fluorescence

## CCCN(CC(=O)N(CCC)CC(=O)N(CC(=O)N(CC(=O)N(CCC)CC(=O)N(CC(=O)N(CC(N)=O)Cc1ccccc1)Cc1ccccc1)Cc1ccccc1)Cc1ccccc1)C(=O)CNCCCCN [JPT1a] (H-[Nlys][NPrGly][NPrGly][Nphe][Nphe][NPrGly][Nphe][Nphe]-NH2)
Aβ40 [1]
  Inhibition of Aβ40 aggregation (reduction in the ThT fluorescence plateau at equilibrium): 85.6±4.8%
Aβ40 [2]
  decrease in fibrillar aggregates at equilibrium (dot blot, OC antibody): 72.6±4.5%
  fold change in lag time versus the control (dot blot, OC antibody): < 0.50 fold
  lag time extension (dot blot, OC antibody), FIG. 3 legend: < 0.42 times that of the control
Aβ40 [3]
  morphology of Aβ40 aggregates formed in the presence of peptoid (TEM): circular, bird nest-like morphology
  overall number of Aβ40 aggregates (TEM): reduction in the overall number of aggregates
Aβ40 [4]
  surface hydrophobicity of Aβ40 aggregates (Nile Red fluorescence IAUC 580-700 nm normalized to control): significantly increased surface hydrophobicity
